Measured values published in PubChem BioAssay (NCI).
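Compound exposure: 48 hours, 5 concentrations, 96-well plates. Abbreviation: GI50, concentration required for 50% inhibition of growth. At the TGI there is no net growth.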

What was measured:
Assay in all cases: inhibition of tumour cell growth, NCI panel, 48 h
786-0 renal = tested on: 786-0 renal
A498 renal = tested on: A498 renal
IGROV1 ovarian = tested on: IGROV1 ovarian
HOP-62 NSCLC = tested on: HOP-62 NSCLC
SNB-19 CNS = tested on: SNB-19 CNS
DU-145 prostate = tested on: DU-145 prostate
NCI/ADR-RES ovarian = tested on: NCI/ADR-RES ovarian
NCI-H23 lung = tested on: NCI-H23 lung
BT-549 breast = tested on: BT-549 breast
HCC-2998 colon = tested on: HCC-2998 colon
MDA-MB-435 = tested on: MDA-MB-435
KM12 colon = tested on: KM12 colon
EKVX NSCLC = tested on: EKVX NSCLC
HCT-15 colon = tested on: HCT-15 colon
HT29 colon = tested on: HT29 colon
NCI-H460 lung = tested on: NCI-H460 lung
SN12C renal = tested on: SN12C renal
SW-620 colon = tested on: SW-620 colon
MCF7 breast = tested on: MCF7 breast
UACC-257 melanoma = tested on: UACC-257 melanoma
OVCAR-3 ovarian = tested on: OVCAR-3 ovarian
T-47D breast = tested on: T-47D breast
A549 NSCLC = tested on: A549 NSCLC
SK-MEL-2 melanoma = tested on: SK-MEL-2 melanoma
SK-MEL-28 melanoma = tested on: SK-MEL-28 melanoma
MDA-MB-231 breast = tested on: MDA-MB-231 breast
MOLT-4 leukemia = tested on: MOLT-4 leukemia
LOX IMVI melanoma = tested on: LOX IMVI melanoma
MALME-3M melanoma = tested on: MALME-3M melanoma
OVCAR-8 ovarian = tested on: OVCAR-8 ovarian
K-562 leukemia = tested on: K-562 leukemia
CCRF-CEM leukemia = tested on: CCRF-CEM leukemia
SK-MEL-5 melanoma = tested on: SK-MEL-5 melanoma
SF-268 CNS = tested on: SF-268 CNS
PC-3 prostate = tested on: PC-3 prostate
COLO 205 colon = tested on: COLO 205 colon
U251 CNS = tested on: U251 CNS
M14 melanoma = tested on: M14 melanoma
ACHN renal = tested on: ACHN renal
NCI-H522 lung = tested on: NCI-H522 lung
SR leukemia = tested on: SR leukemia
SF-295 CNS = tested on: SF-295 CNS
SK-OV-3 ovarian = tested on: SK-OV-3 ovarian
OVCAR-5 ovarian = tested on: OVCAR-5 ovarian
CAKI-1 renal = tested on: CAKI-1 renal
OVCAR-4 ovarian = tested on: OVCAR-4 ovarian
UACC-62 melanoma = tested on: UACC-62 melanoma
UO-31 renal = tested on: UO-31 renal
HCT-116 colon = tested on: HCT-116 colon
HS 578T breast = tested on: HS 578T breast
HL-60(TB) leukemia = tested on: HL-60(TB) leukemia
SNB-75 CNS = tested on: SNB-75 CNS
SF-539 CNS = tested on: SF-539 CNS
RXF 393 renal = tested on: RXF 393 renal
NCI-H226 lung = tested on: NCI-H226 lung
TK-10 renal = tested on: TK-10 renal

CC(C)(C)NC(C1=CC(C)(C)c2ccccc2C1=O)c1ccccc1 (configuration not stated)
GI50 (786-0 renal): 1750 nM | TGI (786-0 renal): 3130 nM | GI50 (A498 renal): 1870 nM | TGI (A498 renal): 6370 nM | GI50 (IGROV1 ovarian): 1520 nM | TGI (IGROV1 ovarian): 4870 nM | GI50 (HOP-62 NSCLC): 2160 nM | TGI (HOP-62 NSCLC): 4840 nM | GI50 (SNB-19 CNS): 3360 nM | TGI (SNB-19 CNS): 14200 nM | GI50 (DU-145 prostate): 1550 nM | TGI (DU-145 prostate): 3240 nM | GI50 (NCI/ADR-RES ovarian): 2450 nM | TGI (NCI/ADR-RES ovarian): 6290 nM | GI50 (NCI-H23 lung): 1490 nM | TGI (NCI-H23 lung): 3170 nM | GI50 (BT-549 breast): 1610 nM | TGI (BT-549 breast): 4920 nM | GI50 (HCC-2998 colon): 1660 nM | TGI (HCC-2998 colon): 3100 nM | GI50 (MDA-MB-435): 1980 nM | TGI (MDA-MB-435): 5400 nM | GI50 (KM12 colon): 1420 nM | TGI (KM12 colon): 2730 nM | GI50 (EKVX NSCLC): 1670 nM | TGI (EKVX NSCLC): 4610 nM | GI50 (HCT-15 colon): 1290 nM | TGI (HCT-15 colon): 2680 nM | GI50 (HT29 colon): 1540 nM | TGI (HT29 colon): 2880 nM | GI50 (NCI-H460 lung): 1930 nM | TGI (NCI-H460 lung): 4580 nM | GI50 (SN12C renal): 1610 nM | TGI (SN12C renal): 3570 nM | GI50 (SW-620 colon): 1530 nM | TGI (SW-620 colon): 2920 nM | GI50 (MCF7 breast): 1320 nM | TGI (MCF7 breast): 2590 nM | GI50 (UACC-257 melanoma): 1420 nM | TGI (UACC-257 melanoma): 2940 nM | GI50 (OVCAR-3 ovarian): 1310 nM | TGI (OVCAR-3 ovarian): 2580 nM | GI50 (T-47D breast): 1120 nM | TGI (T-47D breast): 2550 nM | GI50 (A549 NSCLC): 2160 nM | TGI (A549 NSCLC): 5250 nM | GI50 (SK-MEL-2 melanoma): 1490 nM | TGI (SK-MEL-2 melanoma): 3080 nM | GI50 (SK-MEL-28 melanoma): 1600 nM | TGI (SK-MEL-28 melanoma): 2950 nM | GI50 (MDA-MB-231 breast): 1580 nM | TGI (MDA-MB-231 breast): 3450 nM | GI50 (MOLT-4 leukemia): 1480 nM | TGI (MOLT-4 leukemia): 4600 nM | GI50 (LOX IMVI melanoma): 1420 nM | TGI (LOX IMVI melanoma): 2730 nM | GI50 (MALME-3M melanoma): 1340 nM | TGI (MALME-3M melanoma): 2970 nM | GI50 (OVCAR-8 ovarian): 1740 nM | TGI (OVCAR-8 ovarian): 4190 nM | GI50 (K-562 leukemia): 1670 nM | TGI (K-562 leukemia): 3860 nM | GI50 (CCRF-CEM leukemia): 1140 nM | TGI (CCRF-CEM leukemia): 4070 nM | GI50 (SK-MEL-5 melanoma): 1520 nM | TGI (SK-MEL-5 melanoma): 2840 nM | GI50 (SF-268 CNS): 1380 nM | TGI (SF-268 CNS): 2740 nM | GI50 (PC-3 prostate): 1630 nM | TGI (PC-3 prostate): 3420 nM | GI50 (COLO 205 colon): 1350 nM | TGI (COLO 205 colon): 2630 nM | GI50 (U251 CNS): 1540 nM | TGI (U251 CNS): 2870 nM | GI50 (M14 melanoma): 1520 nM | TGI (M14 melanoma): 2850 nM | GI50 (ACHN renal): 1490 nM | TGI (ACHN renal): 2820 nM | GI50 (NCI-H522 lung): 1100 nM | TGI (NCI-H522 lung): 2410 nM | GI50 (SR leukemia): 293 nM | TGI (SR leukemia): 1740 nM | GI50 (SF-295 CNS): 5070 nM | TGI (SF-295 CNS): 17800 nM | GI50 (SK-OV-3 ovarian): 3040 nM | TGI (SK-OV-3 ovarian): 12100 nM | GI50 (OVCAR-5 ovarian): 1820 nM | TGI (OVCAR-5 ovarian): 3780 nM | GI50 (CAKI-1 renal): 3260 nM | TGI (CAKI-1 renal): 13400 nM | GI50 (OVCAR-4 ovarian): 1510 nM | TGI (OVCAR-4 ovarian): 5930 nM | GI50 (UACC-62 melanoma): 1300 nM | TGI (UACC-62 melanoma): 2820 nM | GI50 (UO-31 renal): 1180 nM | TGI (UO-31 renal): 2450 nM | GI50 (HCT-116 colon): 1350 nM | TGI (HCT-116 colon): 2640 nM | GI50 (HS 578T breast): 1430 nM | TGI (HS 578T breast): 6080 nM | GI50 (HL-60(TB) leukemia): 868 nM | TGI (HL-60(TB) leukemia): 2900 nM | GI50 (SNB-75 CNS): 1020 nM | TGI (SNB-75 CNS): 2570 nM | GI50 (SF-539 CNS): 1660 nM | TGI (SF-539 CNS): 3020 nM | GI50 (RXF 393 renal): 1220 nM | TGI (RXF 393 renal): 2530 nM | GI50 (NCI-H226 lung): 1420 nM | TGI (NCI-H226 lung): 3170 nM | GI50 (TK-10 renal): 1750 nM | TGI (TK-10 renal): 3390 nM
